Tests used:
[1] = In vitro metabolism, mouse liver microsomes; assay type: in vitro ADME; details: % remaining of compound after 60 min treatment with mouse liver microsomes
Experimental: In vitro metabolism of NUCC-176242 and NUCC-176248 were tested using mouse liver microsomes and a mouse S9 fraction. (See FIG. 9).

NCI 60 cell panel = experiment: NCI 60 Cell One-Dose Screen; assay type: cell-based, human; details: 1.00E−5 Molar
Experimental: General Description. As of early 2007 all compounds submitted to the NCI 60 Cell screen are tested initially at a single high dose (10^-5 M) in the full NCI 60 cell panel. Only compounds which satisfy pre-determined threshold inhibition criteria in a minimum number of cell lines will progress to the full 5-dose assay. The threshold inhibition criteria for progression to the 5-dose screen was selected to efficiently capture compounds with anti-proliferative activity based on careful analysis of historical DTP screening data. The threshold criteria may be updated as additional data becomes available.
Interpretation of One-Dose Data. The One-dose data will be reported as a mean graph of the percent growth of treated cells and will be similar in appearance to mean graphs from the 5-dose assay. The number reported for the One-dose assay is growth relative to the no-drug control, and relative to the time zero number of cells. This allows detection of both growth inhibition (values between 0 and 100) and lethality (values less than 0). This is the same as for the 5-dose assay, described below. For example, a value of 100 means no growth inhibition. A value of 40 would mean 60% growth inhibition. A value of 0 means no net growth over the course of the experiment. A value of −40 would mean 40% lethality. A value of −100 means all cells are dead. Information from the One-dose mean graph is available for COMPARE analysis.
The human tumor cell lines of the cancer screening panel are grown in RPMI 1640 medium containing 5% fetal bovine serum and 2 mM L-glutamine. For a typical screening experiment, cells are inoculated into 96 well microtiter plates in 100 μL at plating densities ranging from 5,000 to 40,000 cells/well depending on the doubling time of individual cell lines. After cell inoculation, the microtiter plates are incubated at […], 5% CO2, 95% air and 100% relative humidity for 24 h prior to addition of experimental drugs.
After 24 h, two plates of each cell line are fixed in situ with TCA, to represent a measurement of the cell population for each cell line at the time of drug addition (Tz). Experimental drugs are solubilized in dimethyl sulfoxide at 400-fold the desired final maximum test concentration and stored frozen prior to use. At the time of drug addition, an aliquot of frozen concentrate is thawed and diluted to twice the desired final maximum test concentration with complete medium containing 50 µg/ml gentamicin. Additional four, 10-fold or ½ log serial dilutions are made to provide a total of five drug concentrations plus control. Aliquots of 100 μl of these different drug dilutions are added to the appropriate microtiter wells already containing 100 μl of medium, resulting in the required final drug concentrations.
Following drug addition, the plates are incubated for an additional 48 h at 37° C., 5% CO2, 95% air, and 100% relative humidity. For adherent cells, the assay is terminated by the addition of cold TCA. Cells are fixed in situ by the gentle addition of 50 μl of cold 50% (w/v) TCA (final concentration, 10% TCA) and incubated for 60 minutes at 4° C. The supernatant is discarded, and the plates are washed five times with tap water and air dried. Sulforhodamine B (SRB) solution (100 μl) at 0.4% (w/v) in 1% acetic acid is added to each well, and plates are incubated for 10 minutes at room temperature. After staining, unbound dye is removed by washing five times with 1% acetic acid and the plates are air dried. Bound stain is subsequently solubilized with 10 mM trizma base, and the absorbance is read on an automated plate reader at a wavelength of 515 nm. For suspension cells, the methodology is the same except that the assay is terminated by fixing settled cells at the bottom of the wells by gently adding 50 μl of 80% TCA (final concentration, 16% TCA). […]

Compound: CCCCCCOc1ccc(-c2cc(C(F)(F)F)nn2C)c(O)c1-c1cncc(C#N)c1 [NUCC-0201207]
- MLM % at 60 min [1]: 52.7%

Compound: Cn1nc(C(F)(F)F)cc1-c1ccc(OCc2ccc(Cl)cc2)c(-c2ccc(Cl)c(C(F)(F)F)c2)c1O [NSC: D-804955/1]
- Growth Percent (NCI 60 cell panel; 786-0 (Renal Cancer)): 28.42%
- Growth Percent (NCI 60 cell panel; A498 (Renal Cancer)): 5.29%
- Growth Percent (NCI 60 cell panel; A549/ATCC (Non-Small Cell Lung Cancer)): 12.83%
- Growth Percent (NCI 60 cell panel; ACHN (Renal Cancer)): 5.21%
- Growth Percent (NCI 60 cell panel; BT-549 (Breast Cancer)): 39.82%
- Growth Percent (NCI 60 cell panel; CAKI-1 (Renal Cancer)): 19.80%
- Growth Percent (NCI 60 cell panel; CCRF-CEM (Leukemia)): 9.89%
- Growth Percent (NCI 60 cell panel; COLO 205 (Colon Cancer)): 24.55%
- Growth Percent (NCI 60 cell panel; DU-145 (Prostate Cancer)): 19.03%
- Growth Percent, Delta (NCI 60 cell panel; Delta of the mean graph): 35.96%
- Growth Percent (NCI 60 cell panel; EKVX (Non-Small Cell Lung Cancer)): 12.77%
- Growth Percent (NCI 60 cell panel; HCC-2998 (Colon Cancer)): 13.50%
- Growth Percent (NCI 60 cell panel; HCT-15 (Colon Cancer)): 8.53%
- Growth Percent (NCI 60 cell panel; HCT-116 (Colon Cancer)): −0.40%
- Growth Percent (NCI 60 cell panel; HL-60(TB) (Leukemia)): 9.30%
- Growth Percent (NCI 60 cell panel; HOP-62 (Non-Small Cell Lung Cancer)): 50.48%
- Growth Percent (NCI 60 cell panel; HOP-92 (Non-Small Cell Lung Cancer)): −22.43%
- Growth Percent (NCI 60 cell panel; HS 578T (Breast Cancer)): 22.83%
- Growth Percent (NCI 60 cell panel; HT29 (Colon Cancer)): 20.44%
- Growth Percent (NCI 60 cell panel; IGROV1 (Ovarian Cancer)): 38.95%
- Growth Percent (NCI 60 cell panel; KM12 (Colon Cancer)): 8.83%
- Growth Percent (NCI 60 cell panel; LOX IMVI (Melanoma)): 5.24%
- Growth Percent (NCI 60 cell panel; M14 (Melanoma)): 35.38%
- Growth Percent (NCI 60 cell panel; MALME-3M (Melanoma)): 12.24%
- Growth Percent (NCI 60 cell panel; MCF7 (Breast Cancer)): 4.01%
- Growth Percent (NCI 60 cell panel; MDA-MB-231/ATCC (Breast Cancer)): 8.70%
- Growth Percent (NCI 60 cell panel; MDA-MB-435 (Melanoma)): 24.66%
- Growth Percent (NCI 60 cell panel; MDA-MB-468 (Breast Cancer)): −18.75%
- Growth Percent (NCI 60 cell panel; MOLT-4 (Leukemia)): 12.26%
- Growth Percent, Mean (NCI 60 cell panel; Mean over the cell panel): 13.53%
- Growth Percent (NCI 60 cell panel; NCI-H23 (Non-Small Cell Lung Cancer)): −6.46%
- Growth Percent (NCI 60 cell panel; NCI-H322M (Non-Small Cell Lung Cancer)): 18.15%
- Growth Percent (NCI 60 cell panel; NCI-H460 (Non-Small Cell Lung Cancer)): 6.25%
- Growth Percent (NCI 60 cell panel; NCI-H522 (Non-Small Cell Lung Cancer)): −13.66%
- Growth Percent (NCI 60 cell panel; NCI/ADR-RES (Ovarian Cancer)): 8.38%
- Growth Percent (NCI 60 cell panel; OVCAR-3 (Ovarian Cancer)): 1.24%
- Growth Percent (NCI 60 cell panel; OVCAR-4 (Ovarian Cancer)): 30.19%
- Growth Percent (NCI 60 cell panel; OVCAR-5 (Ovarian Cancer)): 53.43%
- Growth Percent (NCI 60 cell panel; OVCAR-8 (Ovarian Cancer)): 7.41%
- Growth Percent (NCI 60 cell panel; PC-3 (Prostate Cancer)): 3.78%
- Growth Percent (NCI 60 cell panel; RPMI-8226 (Leukemia)): −17.88%
- Growth Percent, Range (NCI 60 cell panel; Range over the cell panel): 75.86%
- Growth Percent (NCI 60 cell panel; SF-268 (CNS Cancer)): 26.01%
- Growth Percent (NCI 60 cell panel; SF-295 (CNS Cancer)): 12.82%
- Growth Percent (NCI 60 cell panel; SF-539 (CNS Cancer)): 34.37%
- Growth Percent (NCI 60 cell panel; SK-MEL-2 (Melanoma)): 1.95%
- Growth Percent (NCI 60 cell panel; SK-MEL-28 (Melanoma)): 31.16%
- Growth Percent (NCI 60 cell panel; SK-OV-3 (Ovarian Cancer)): 20.62%
- Growth Percent (NCI 60 cell panel; SN12C (Renal Cancer)): 6.24%
- Growth Percent (NCI 60 cell panel; SNB-19 (CNS Cancer)): 19.21%
- Growth Percent (NCI 60 cell panel; SNB-75 (CNS Cancer)): 47.69%
- Growth Percent (NCI 60 cell panel; SR (Leukemia)): 25.07%
- Growth Percent (NCI 60 cell panel; SW-620 (Colon Cancer)): 13.94%
- Growth Percent (NCI 60 cell panel; T-47D (Breast Cancer)): −0.38%
- Growth Percent (NCI 60 cell panel; TK-10 (Renal Cancer)): 0.36%
- Growth Percent (NCI 60 cell panel; U251 (CNS Cancer)): 0.82%
- Growth Percent (NCI 60 cell panel; UACC-62 (Melanoma)): 19.68%
- Growth Percent (NCI 60 cell panel; UACC-257 (Melanoma)): 2.35%
- Growth Percent (NCI 60 cell panel; UO-31 (Renal Cancer)): −6.34%

Compound: Oc1c(-c2cc(C(F)(F)F)[nH]n2)ccc(Oc2ccc(Cl)cc2)c1-c1cc(C(F)(F)F)cc(C(F)(F)F)c1 [NUCC-0201223]
- MLM % at 60 min [1]: 75.8%

Compound: COc1cccc(-c2c(-c3ccc(OCc4ccc(Cl)cc4)cc3O)n[nH]c2C(F)(F)F)c1 [NUCC-0198309]
- MLM % at 60 min [1]: 74%

Compound: Oc1cc(OCc2ccc(Cl)cc2)ccc1-c1n[nH]c(C(F)(F)F)c1Oc1ccccc1Cl [NUCC-0196342]
- MLM % at 60 min [1]: 87.4%

From patent publication US20250084040A1, “SUBSTITUTED HETEROCYCLES AS c-MYC TARGETING AGENTS” (Northwestern University, priority 2018, published 2025)
